Like-named read-outs stand apart in the source and are kept apart here.
Columns and labels:
[1] = tested on: ATR-driven phosphorylation of Chk1 kinase at Serine 345; assay: pCHK1 cellular assay (CHK1 p-Ser345 AlphaScreen SureFire) in HT-29 cells; type: cell-based; details: 4-nitroquinoline N-oxide 12 uM, read-out: pCHK1 Cell IC50
Procedure: Inhibitors of ATR kinase are effective at inhibiting the ATR-driven phosphorylation of the downstream target Chk1 kinase at Serine 345, following the addition of 4-nitroquinoline N-oxide, a chemical used to induce DNA damage. Cellular IC50 for the inhibitors of ATR described herein were measured in HT-29 colorectal adenocarcinoma cells. HT-29 cells were routinely maintained in McCoy's 5A media (ATCC Catalog #30-2007) supplemented with 10% fetal bovine serum (Sigma Catalog # F2442) and 1× Penicillin-Streptomycin (Gibco Catalog #15140-122) using a humidified incubator (37° C., 5% CO2, and ambient O2).
In preparation for the CHK1 (p-Ser345) ALPHASCREEN® SUREFIRE® assay, cells were harvested and resuspended in McCoy's 5A media supplemented with 10% fetal bovine serum and 1× Penicillin-Streptomycin. Cells were seeded onto a 384-well black CELLSTAR® Tissue Culture Plate (VWR Catalog #89085-314) at a density of 13,000 cells/well in a volume of 40 uL. The microplate was incubated overnight (approximately 20 hours) at 37° C. with 5% CO2 and ambient O2. Stock solutions of the test compounds were prepared in 100% DMSO (Sigma, Catalog # D2650) and serially diluted 1:3 using 100% DMSO. Compounds were additionally diluted 1:33 in culture medium, and 10 ul/well were transferred to the tissue culture plate. Following the compound addition the microplate was incubated at 37° C. for 90 minutes. 10 uL of 4-nitroquinoline N-oxide (Sigma Aldrich Catalog # N8141-1G) diluted in media (final concentration 12 uM) were added to the tissue culture plate followed by a 120 minute incubation at 37° C. The cells were then washed with PBS and lysed using 10 uL/well SUREFIRE® Kit lysis buffer diluted to 1× in water (PerkinElmer Catalog # TGRCHK1S50K), with mixing on an orbital shaker at 500 rpm for 20 min at RT. Lysates were frozen at −20° C. overnight.
4 uL/well of lysate was then transferred from the tissue culture plate to a 384-well, white, low volume, PROXIPLATE™ (PerkinElmer Catalog #600828). 5 uL/well of the acceptor bead solution, prepared by diluting SUREFIRE® Kit activation buffer (PerkinElmer Catalog # TGRCHK1S50K) and ALPHASCREEN® Protein A acceptor beads (PerkinElmer Catalog #6760617R) in SUREFIRE® Kit reaction buffer (PerkinElmer Catalog # TGRCHK1S50K), were added to the lysates under subdued light and incubated at room temperature for 120 min. 2 uL/well of the donor bead solution, prepared by diluting ALPHASCREEN® Streptavidin donor beads (PerkinElmer Catalog #6760617R) in SUREFIRE® Kit dilution buffer (PerkinElmer Catalog # TGRCHK1S50K), were added under subdued light and incubated at room temperature for an addition 120 minutes. The pCHK1 ALPHASCREEN® signal was measured using an ENVISION® plate reader (PerkinElmer). IC50 values were calculated using a four-parameter logistic curve fit using Genedata Screener software. Percent of control for each compound concentration was calculated by the following formula: 100*(Compound-Min)/(Max-Min) where “Max” is the high control, DMSO, and “Min” is the low control, 5 uM ATR inhibitor.

[2] = target: ATR/ATRIP complex (Homo sapiens (Human), UniProt Q13535); assay: ATR/ATRIP enzymatic assay (Caliper-based); type: biochemical; details: FAM-labeled RAD17 peptide, ATP; read-out: ATR/ATRIP Enzyme IC50
Procedure: Human full-length FLAG-TEV-ATR and His6-ATRIP were co-expressed in HEK293 cells. The cell pellet (20 g) was harvested and lysed in 100 mL of lysis buffer (20 mM Tris-HCl pH 7.5 at room temperature, 137 mM NaCl, 10% glycerol, 1 mM DTT, 1% (v/v) Tween-20, 0.1% (v/v) NP-40, complete protease inhibitor cocktail tablets, phosphatase inhibitor cocktail tablets, 2 mM MgCl2, 0.2 mM EDTA, and 1 mM ATP). After sonication and centrifugation, the supernatant was incubated at 4° C. for 3 hours with 1 mL of anti-FLAG resin (Sigma catalog # A2220) that had been pre-equilibrated in buffer A (20 mM Tris-HCl pH 7.5 at room temperature, 137 mM NaCl, 10% glycerol, 1 mM DTT, 2 mM MgCl2, and 0.2 mM EDTA). The sample was loaded into a column, and then washed with buffer A three times. Protein was subsequently eluted with 2 ml of buffer B (buffer A+200 μg/ml 3×FLAG peptide).
The ability of new chemical matter to inhibit the ATR catalytic activity in this ATR/ATRIP complex was assessed a Caliper-based assay. A 2× enzyme solution (i.e., 4 nM enzyme) was prepared using 1× Kinase Reaction Buffer (25 mM HEPES pH 8, 0.0055% Brij-35, 10 mM MnCl2, and 1 mM DTT). A 2× peptide solution was then prepared consisting of 10 uM FAM-labeled RAD17 peptide (GL Biochem, catalog #524315) in 1× Kinase Reaction Buffer supplemented with 2 μM ATP. 10 μL of the 2× enzyme solution was transferred to an assay plate containing 60 nL of test compound (from a 3× serial dilution) in 100% DMSO. Following a 30 minute incubation at 28° C., 10 μL of the 2× peptide solution was then transferred to the same assay plate. The reaction was allowed to incubate at 28° C. for 6 hours. After adding 30 μL of stop buffer (100 mM HEPES pH 7.5, 0.015% Brij-35, 0.2% Coating-3 Reagent (PerkinElmer, catalog # PN760050), and 50 mM EDTA), data were collected on a Caliper instrument. […] IC50 values were calculated using the following equation in XLFit: Y=Bottom+(Top-Bottom)/1+(IC50/X)^HillSlope).

[3] = Homo sapiens, HT-29, HT-29 colorectal adenocarcinoma cells

Sequence of ATR/ATRIP complex (Q13535 whole entry): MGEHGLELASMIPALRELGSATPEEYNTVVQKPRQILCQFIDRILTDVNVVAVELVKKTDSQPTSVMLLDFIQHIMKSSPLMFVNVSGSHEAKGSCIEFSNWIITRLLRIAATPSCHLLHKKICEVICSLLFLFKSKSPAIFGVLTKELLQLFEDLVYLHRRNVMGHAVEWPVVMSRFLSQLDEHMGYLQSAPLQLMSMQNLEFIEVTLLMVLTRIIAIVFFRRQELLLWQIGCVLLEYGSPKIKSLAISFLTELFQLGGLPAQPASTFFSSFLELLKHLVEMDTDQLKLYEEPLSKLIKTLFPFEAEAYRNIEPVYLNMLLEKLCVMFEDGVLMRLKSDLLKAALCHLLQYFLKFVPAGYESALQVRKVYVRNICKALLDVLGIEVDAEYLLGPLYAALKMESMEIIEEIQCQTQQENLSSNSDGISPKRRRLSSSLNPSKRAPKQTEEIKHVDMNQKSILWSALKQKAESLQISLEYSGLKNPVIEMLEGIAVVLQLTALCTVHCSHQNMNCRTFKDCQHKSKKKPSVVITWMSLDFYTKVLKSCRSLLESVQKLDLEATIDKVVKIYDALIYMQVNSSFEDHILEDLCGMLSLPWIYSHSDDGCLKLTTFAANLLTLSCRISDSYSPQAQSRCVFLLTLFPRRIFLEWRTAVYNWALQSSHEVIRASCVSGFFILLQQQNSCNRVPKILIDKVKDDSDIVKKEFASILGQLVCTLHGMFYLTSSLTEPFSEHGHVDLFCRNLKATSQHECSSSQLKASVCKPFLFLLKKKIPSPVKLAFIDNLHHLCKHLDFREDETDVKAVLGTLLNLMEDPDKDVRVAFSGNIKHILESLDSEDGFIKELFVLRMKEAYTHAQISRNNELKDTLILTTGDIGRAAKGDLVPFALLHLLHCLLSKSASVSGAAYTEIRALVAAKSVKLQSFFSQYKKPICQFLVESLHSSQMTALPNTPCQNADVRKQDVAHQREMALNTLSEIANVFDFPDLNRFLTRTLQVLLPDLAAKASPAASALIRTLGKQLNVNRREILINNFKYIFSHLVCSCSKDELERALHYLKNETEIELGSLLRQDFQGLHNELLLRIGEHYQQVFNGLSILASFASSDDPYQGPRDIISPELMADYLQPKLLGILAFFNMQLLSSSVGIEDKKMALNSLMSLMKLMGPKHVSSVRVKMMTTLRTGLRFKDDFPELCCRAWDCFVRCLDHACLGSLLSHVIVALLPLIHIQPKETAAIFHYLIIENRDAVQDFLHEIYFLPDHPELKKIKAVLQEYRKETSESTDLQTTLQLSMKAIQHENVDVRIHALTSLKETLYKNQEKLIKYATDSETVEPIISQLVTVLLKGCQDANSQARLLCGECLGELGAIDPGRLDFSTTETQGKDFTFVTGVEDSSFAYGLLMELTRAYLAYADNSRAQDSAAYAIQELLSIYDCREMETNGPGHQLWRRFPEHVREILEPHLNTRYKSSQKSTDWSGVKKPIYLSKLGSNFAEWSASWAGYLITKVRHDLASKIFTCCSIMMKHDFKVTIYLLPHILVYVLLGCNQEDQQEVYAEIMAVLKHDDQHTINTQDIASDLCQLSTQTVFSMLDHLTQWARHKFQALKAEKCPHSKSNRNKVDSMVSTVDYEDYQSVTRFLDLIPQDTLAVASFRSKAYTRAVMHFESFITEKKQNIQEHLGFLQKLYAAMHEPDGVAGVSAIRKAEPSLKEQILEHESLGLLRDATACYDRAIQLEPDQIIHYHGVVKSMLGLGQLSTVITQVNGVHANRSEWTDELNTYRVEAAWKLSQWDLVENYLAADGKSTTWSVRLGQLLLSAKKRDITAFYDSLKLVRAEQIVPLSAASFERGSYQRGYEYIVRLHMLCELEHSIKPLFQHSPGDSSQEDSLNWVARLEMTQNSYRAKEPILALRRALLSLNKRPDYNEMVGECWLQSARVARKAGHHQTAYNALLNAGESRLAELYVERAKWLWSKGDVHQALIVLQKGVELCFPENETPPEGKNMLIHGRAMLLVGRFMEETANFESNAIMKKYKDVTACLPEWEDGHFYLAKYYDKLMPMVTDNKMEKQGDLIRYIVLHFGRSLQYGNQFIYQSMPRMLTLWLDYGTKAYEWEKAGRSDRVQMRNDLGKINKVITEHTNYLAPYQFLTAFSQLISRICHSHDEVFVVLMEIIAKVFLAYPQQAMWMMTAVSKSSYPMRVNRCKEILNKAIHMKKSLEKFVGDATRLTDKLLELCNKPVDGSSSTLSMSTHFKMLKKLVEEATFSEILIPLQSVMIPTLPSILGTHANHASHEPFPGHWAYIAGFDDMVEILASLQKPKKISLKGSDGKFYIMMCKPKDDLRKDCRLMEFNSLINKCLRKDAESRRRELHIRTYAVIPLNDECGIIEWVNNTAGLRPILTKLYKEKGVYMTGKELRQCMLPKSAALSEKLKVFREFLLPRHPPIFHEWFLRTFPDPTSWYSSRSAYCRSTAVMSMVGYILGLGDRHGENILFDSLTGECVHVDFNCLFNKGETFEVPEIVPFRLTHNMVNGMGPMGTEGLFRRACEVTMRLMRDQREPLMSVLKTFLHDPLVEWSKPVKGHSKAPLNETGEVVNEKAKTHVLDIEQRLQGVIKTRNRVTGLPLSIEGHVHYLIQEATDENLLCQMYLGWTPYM
Sequence of ATR/ATRIP complex (Q8WXE1 whole entry partner): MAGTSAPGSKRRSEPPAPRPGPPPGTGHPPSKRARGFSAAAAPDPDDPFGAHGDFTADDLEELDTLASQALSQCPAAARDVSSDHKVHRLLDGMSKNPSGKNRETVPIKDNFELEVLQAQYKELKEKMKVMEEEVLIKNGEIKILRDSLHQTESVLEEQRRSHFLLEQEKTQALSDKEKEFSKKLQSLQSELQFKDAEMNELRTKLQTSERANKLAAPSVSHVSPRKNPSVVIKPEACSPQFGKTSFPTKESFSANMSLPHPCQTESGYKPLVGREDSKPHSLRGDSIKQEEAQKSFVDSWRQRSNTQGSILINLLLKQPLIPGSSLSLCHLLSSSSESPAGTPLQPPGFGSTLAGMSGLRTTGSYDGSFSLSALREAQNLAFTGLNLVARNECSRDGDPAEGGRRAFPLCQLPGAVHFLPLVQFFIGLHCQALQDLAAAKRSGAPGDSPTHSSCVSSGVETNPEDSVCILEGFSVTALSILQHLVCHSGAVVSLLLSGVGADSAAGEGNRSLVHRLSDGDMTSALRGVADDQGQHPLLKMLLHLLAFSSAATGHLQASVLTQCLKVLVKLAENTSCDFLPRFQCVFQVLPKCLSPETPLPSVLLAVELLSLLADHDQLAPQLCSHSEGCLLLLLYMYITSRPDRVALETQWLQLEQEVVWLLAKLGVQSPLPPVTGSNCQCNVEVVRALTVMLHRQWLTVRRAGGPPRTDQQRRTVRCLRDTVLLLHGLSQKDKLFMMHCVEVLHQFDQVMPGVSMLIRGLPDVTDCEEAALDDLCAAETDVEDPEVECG

| Compound | IC50 [1, 3] | IC50 [2] | IC50 ([1]; HT-29 colorectal adenocarcinoma cells) |
| --- | --- | --- | --- |
| C[C@@H]1Cc2ncnc(C3CCCN(S(C)(=O)=O)C3)c2CN1c1cc(Cl)nc2[nH]ccc12 (single isomer, unassigned) [Example 51a] |  | 561 nM |  |
| C[C@@H]1Cc2ncnc(N3CCC(S(C)(=O)=O)CC3)c2CN1c1cc(Cl)nc2[nH]ccc12 [Example 9, (R)-6-(6-Chloro-1H-pyrrolo[2,3-b]pyridin-4-yl)-7-methyl-4-(4-(methylsulfonyl)-piperidin-1-yl)-5,6,7,8-tetrahydropyrido[4,3-d]pyrimidine bis(trifluoroacetate)] |  |  | 25 nM |
| C[C@@H]1Cc2ncnc([C@H]3CCN(S(C)(=O)=O)C3)c2CN1c1ccnc2[nH]ccc12 [Example 57b, (R)-7-methyl-4-((S)-1-(methylsulfonyl)pyrrolidin-3-yl)-6-(1H-pyrrolo[2,3-b]pyridin-4-yl)-5,6,7,8-tetrahydropyrido[4,3-d]pyrimidine] | 394 nM |  |  |
| C[C@@H]1Cc2ncnc([C@H]3CCN(S(C)(=O)=O)C(C)(C)C3)c2CN1c1ccnc2[nH]ccc12 (single isomer, unassigned) [Example 48b] | 79 nM |  |  |
| C[C@@H]1Cc2ncnc(C3CCCN(S(C)(=O)=O)C3)c2CN1c1cc(Cl)nc2[nH]ccc12 (single isomer, unassigned) [Example 51b] |  | 2200 nM |  |

More lines, main results first:

| IC50 [1, 3] | IC50 [2] | Compound | IC50 ([1]; HT-29 colorectal adenocarcinoma cells) |
| --- | --- | --- | --- |
| 85 nM |  | C[C@@H]1Cc2ncnc(N3CCC(S(C)(=O)=O)CC3)c2CN1c1ccnc2[nH]ccc12 [Example 88, (R)-7-methyl-4-(4-(methylsulfonyl)piperidin-1-yl)-6-(1H-pyrrolo[2,3-b]pyridin-4-yl)-5,6,7,8-tetrahydropyrido[4,3-d]pyrimidine] |  |
| 31 nM | 279 nM | C[C@@H]1Cc2ncnc(N3C[C@H]4CC[C@@H](C3)[C@H]4NS(C)(=O)=O)c2CN1c1ccnc2[nH]ccc12 [Example 74, N-((1R,5S,8R)-3-((R)-7-methyl-6-(1H-pyrrolo[2,3-b]pyridin-4-yl)-5,6,7,8-tetrahydropyrido[4,3-d]pyrimidin-4-yl)-3-azabicyclo[3.2.1]octan-8-yl)methanesulfonamide] |  |
